Test results taken from US9873709B2 (priority 2013, dated 2018).

Test system: JAK1-dependent STAT6 phosphorylation downstream of IL-13 stimulation in TF-1 human erythroleukemia cells
Experiment: cells
Conditions: TF-1, read-out: IL-13-pSTAT6 IC50

## CCOC(=O)N1CC=C(c2cccn3nc(Nc4ccc(C(=O)NCCc5ccccn5)cc4)nc23)CC1 [Example 2-423, ethyl 4-[2-[4-[2-(2-pyridyl)ethylcarbamoyl]anilino]-[1,2,4]triazolo[1,5-a]pyridin-8-yl]-3,6-dihydro-2H-pyridine-1-carboxylate]
  IC50: 17.3 nM

## CCOC(=O)N1CC=C(c2cccn3nc(Nc4ccc(C(=O)N5CC(CN)C5)cc4)nc23)CC1 [Example 2-165, ethyl 4-[2-[4-[3-(aminomethyl)azetidine-1-carbonyl]anilino]-[1,2,4]triazolo[1,5-a]pyridin-8-yl]-3,6-dihydro-2H-pyridine-1-carboxylate]
  IC50: 187 nM

## CCOC(=O)N1CC=C(c2cccn3nc(Nc4ccc(C(=O)N5Cc6cccnc6C5)cc4)nc23)CC1 [Example 2-70, ethyl 4-[2-[4-(5,7-dihydropyrrolo[3,4-b]pyridine-6-carbonyl)anilino]-[1,2,4]triazolo[1,5-a]pyridin-8-yl]-3,6-dihydro-2H-pyridine-1-carboxylate]
  IC50: 29.8 nM

## CCOC(=O)N1CC=C(c2cccn3nc(Nc4ccc(C(=O)NC5CCNCC5)cc4)nc23)CC1 [Example 2-360, ethyl 4-[2-[4-(4-piperidylcarbamoyl)anilino]-[1,2,4]triazolo[1,5-a]pyridin-8-yl]-3,6-dihydro-2H-pyridine-1-carboxylate]
  IC50: 411 nM

## CN1CCC2(CC1)CN(C(=O)c1ccc(Nc3nc4c(C5=CCN(C(=O)CCC(F)(F)F)CC5)cccn4n3)cc1)C2 [Example 2-391, 4,4,4-trifluoro-1-[4-[2-[4-(7-methyl-2,7-diazaspiro[3.5]nonane-2-carbonyl)anilino]-[1,2,4]triazolo[1,5-a]pyridin-8-yl]-3,6-dihydro-2H-pyridin-1-yl]butan-1-one]
  IC50: 5.7 nM

## CN(C(=O)c1ccc(Nc2nc3c(C4=CCN(C(=O)CCC(F)(F)F)CC4)cccn3n2)cc1)C1CNC1 [Example 2-451]
  IC50: 287 nM

## CN1CCCC12CN(C(=O)c1ccc(Nc3nc4c(N5CCC(O)(c6ccc(Cl)cc6)CC5)cccn4n3)cc1)C2 [Example 1-60, [4-[[8-[4-(4-chlorophenyl)-4-hydroxy-1-piperidyl]-[1,2,4]triazolo[1,5-a]pyridin-2-yl]amino]phenyl]-(5-methyl-2,5-diazaspiro[3.4]octan-2-yl)methanone]
  IC50: 12.2 nM

## O=C(NCC1CCCCN1)c1ccc(Nc2nc3c(C4=CCN(C(=O)CCC(F)(F)F)CC4)cccn3n2)cc1 (stereo not drawn) [Example 2-385, N-(2-piperidylmethyl)-4-[[8-[1-(4,4,4-trifluorobutanoyl)-3,6-dihydro-2H-pyridin-4-yl]-[1,2,4]triazolo[1,5-a]pyridin-2-yl]amino]benzamide]
  IC50: 174 nM

## NCC1CCN(C(=O)c2ccc(Nc3nc4c(C5=CCN(C(=O)CCC(F)(F)F)CC5)cccn4n3)cc2)CC1 [Example 2-446, 1-[4-[2-[4-[4-(aminomethyl)piperidine-1-carbonyl]anilino]-[1,2,4]triazolo[1,5-a]pyridin-8-yl]-3,6-dihydro-2H-pyridin-1-yl]-4,4,4-trifluoro-butan-1-one]
  IC50: 208 nM

## CN(C)C1CCN(C(=O)c2ccc(Nc3nc4c(C5=CCN(C(=O)CCC(F)(F)F)CC5)cccn4n3)cc2)CC1 [Example 2-97, 1-[4-[2-[4-[4-(dimethylamino)piperidine-1-carbonyl]anilino]-[1,2,4]triazolo[1,5-a]pyridin-8-yl]-3,6-dihydro-2H-pyridin-1-yl]-4,4,4-trifluoro-butan-1-one]
  IC50: 13.7 nM

## NCC1CN(C(=O)c2ccc(Nc3nc4c(C5=CCN(C(=O)CCC(F)(F)F)CC5)cccn4n3)cc2)C1 [Example 2-207, 1-[4-[2-[4-[3-(aminomethyl)azetidine-1-carbonyl]anilino]-[1,2,4]triazolo[1,5-a]pyridin-8-yl]-3,6-dihydro-2H-pyridin-1-yl]-4,4,4-trifluoro-butan-1-one]
  IC50: 141 nM

## O=C(CCC(F)(F)F)N1CC=C(c2cccn3nc(Nc4ccc(C(=O)N5CCN(c6cccnc6)CC5)cc4)nc23)CC1 [Example 2-395, 4,4,4-trifluoro-1-[4-[2-[4-[4-(3-pyridyl)piperazine-1-carbonyl]anilino]-[1,2,4]triazolo[1,5-a]pyridin-8-yl]-3,6-dihydro-2H-pyridin-1-yl]butan-1-one]
  IC50: 4.6 nM

## CCOC(=O)N1CC=C(c2cccn3nc(Nc4ccc(C(=O)N[C@H]5CCCNC5)cc4)nc23)CC1 [Example 2-250, ethyl 4-[2-[4-[[(3S)-3-piperidyl]carbamoyl]anilino]-[1,2,4]triazolo[1,5-a]pyridin-8-yl]-3,6-dihydro-2H-pyridine-1-carboxylate]
  IC50: 76.7 nM

## O=C(CCC(F)(F)F)N1CC=C(c2cccn3nc(Nc4ccc(C(=O)N5CCN(CC6CCCO6)CC5)cc4)nc23)CC1 (stereo not drawn) [Example 2-340, 4,4,4-trifluoro-1-[4-[2-[4-[4-(tetrahydrofuran-2-ylmethyl)piperazine-1-carbonyl]anilino]-[1,2,4]triazolo[1,5-a]pyridin-8-yl]-3,6-dihydro-2H-pyridin-1-yl]butan-1-one]
  IC50: 3.9 nM

## CC(=O)N1CC2(C1)CN(C(=O)c1ccc(Nc3nc4c(C5=CCN(C(=O)CCC(F)(F)F)CC5)cccn4n3)cc1)C2 [Example 2-204, 1-[4-[2-[4-(6-acetyl-2,6-diazaspiro[3.3]heptane-2-carbonyl)anilino]-[1,2,4]triazolo[1,5-a]pyridin-8-yl]-3,6-dihydro-2H-pyridin-1-yl]-4,4,4-trifluoro-butan-1-one]
  IC50: 89.7 nM

## O=C(CCC(F)(F)F)N1CC=C(c2cccn3nc(Nc4ccc(C(=O)N5CCCC(c6cc7cccnc7[nH]6)C5)cc4)nc23)CC1 (stereo not drawn) [Example 2-103, 4,4,4-trifluoro-1-[4-[2-[4-[3-(1H-pyrrolo[2,3-b]pyridin-2-yl)piperidine-1-carbonyl]anilino]-[1,2,4]triazolo[1,5-a]pyridin-8-yl]-3,6-dihydro-2H-pyridin-1-yl]butan-1-one]
  IC50: 145 nM

## O=C(CCC(F)(F)F)N1CC=C(c2cccn3nc(Nc4ccc(C(=O)N5CCCCC5Cc5ccccn5)cc4)nc23)CC1 (stereo not drawn) [Example 2-265, 4,4,4-trifluoro-1-[4-[2-[4-[2-(2-pyridylmethyl)piperidine-1-carbonyl]anilino]-[1,2,4]triazolo[1,5-a]pyridin-8-yl]-3,6-dihydro-2H-pyridin-1-yl]butan-1-one]
  IC50: 4.2 nM

## CN(C)CCN1CCN(C(=O)c2ccc(Nc3nc4c(C5=CCN(C(=O)CCC(F)(F)F)CC5)cccn4n3)cc2)CC1 [Example 2-102, 1-[4-[2-[4-[4-[2-(dimethylamino)ethyl]piperazine-1-carbonyl]anilino]-[1,2,4]triazolo[1,5-a]pyridin-8-yl]-3,6-dihydro-2H-pyridin-1-yl]-4,4,4-trifluoro-butan-1-one]
  IC50: 33.7 nM

## CCOC(=O)N1CC=C(c2cccn3nc(Nc4ccc(C(=O)NC5CCN(C)CC5)cc4)nc23)CC1 [Example 2-60, ethyl 4-[2-[4-[(1-methyl-4-piperidyl)carbamoyl]anilino]-[1,2,4]triazolo[1,5-a]pyridin-8-yl]-3,6-dihydro-2H-pyridine-1-carboxylate]
  IC50: 20.4 nM

## CCOC(=O)N1CC=C(c2cccn3nc(Nc4ccc(C(=O)N5CC6(CCCN6C)C5)cc4)nc23)CC1 [Example 2-176, ethyl 4-[2-[4-(5-methyl-2,5-diazaspiro[3.4]octane-2-carbonyl)anilino]-[1,2,4]triazolo[1,5-a]pyridin-8-yl]-3,6-dihydro-2H-pyridine-1-carboxylate]
  IC50: 8.1 nM

## CN1CCCCC1C1CCCN1C(=O)c1ccc(Nc2nc3c(N4CCC(O)(c5ccc(Cl)cc5)CC4)cccn3n2)cc1 (stereo not drawn) [Example 1-52, [4-[[8-[4-(4-chlorophenyl)-4-hydroxy-1-piperidyl]-[1,2,4]triazolo[1,5-a]pyridin-2-yl]amino]phenyl]-[2-(1-methyl-2-piperidyl)pyrrolidin-1-yl]methanone]
  IC50: 21.1 nM

## CN1CC2CC(C1)N(C(=O)c1ccc(Nc3nc4c(C5=CCN(C(=O)CCC(F)(F)F)CC5)cccn4n3)cc1)C2 (stereo not drawn) [Example 2-201, 4,4,4-trifluoro-1-[4-[2-[4-(3-methyl-3,6-diazabicyclo[3.2.1]octane-6-carbonyl)anilino]-[1,2,4]triazolo[1,5-a]pyridin-8-yl]-3,6-dihydro-2H-pyridin-1-yl]butan-1-one]
  IC50: 6 nM

## CCOC(=O)N1CC=C(c2cccn3nc(Nc4ccc(C(=O)N5CC6(CCCCN6)C5)cc4)nc23)CC1 [Example 2-437, ethyl 4-[2-[4-(2,5-diazaspiro[3.5]nonane-2-carbonyl)anilino]-[1,2,4]triazolo[1,5-a]pyridin-8-yl]-3,6-dihydro-2H-pyridine-1-carboxylate]
  IC50: 33.7 nM

## CN1CCC(N(C)C(=O)c2ccc(Nc3nc4c(C5=CCN(C(=O)CC(C)(C)C)CC5)cccn4n3)cc2)CC1 [Example 2-54, 4-[[8-[1-(3,3-dimethylbutanoyl)-3,6-dihydro-2H-pyridin-4-yl]-[1,2,4]triazolo[1,5-a]pyridin-2-yl]amino]-N-methyl-N-(1-methyl-4-piperidyl)benzamide]
  IC50: 16.3 nM

## CN(C)[C@H]1CCN(C(=O)c2ccc(Nc3nc4c(C5=CCN(C(=O)CCC(F)(F)F)CC5)cccn4n3)cc2)C1 [Example 2-158, 1-[4-[2-[4-[(3S)-3-(dimethylamino)pyrrolidine-1-carbonyl]anilino]-[1,2,4]triazolo[1,5-a]pyridin-8-yl]-3,6-dihydro-2H-pyridin-1-yl]-4,4,4-trifluoro-butan-1-one]
  IC50: 7.3 nM

## O=C(CCC(F)(F)F)N1CC=C(c2cccn3nc(Nc4ccc(C(=O)N5CCC6(CC5)CNC6)cc4)nc23)CC1 [Example 2-314, 1-[4-[2-[4-(2,7-diazaspiro[3.5]nonane-7-carbonyl)anilino]-[1,2,4]triazolo[1,5-a]pyridin-8-yl]-3,6-dihydro-2H-pyridin-1-yl]-4,4,4-trifluoro-butan-1-one]
  IC50: 194 nM

## O=C(CCC(F)(F)F)N1CC=C(c2cccn3nc(Nc4ccc(C(=O)N5CCC(c6ccccn6)CC5)cc4)nc23)CC1 [Example 2-156, 4,4,4-trifluoro-1-[4-[2-[4-[4-(2-pyridyl)piperidine-1-carbonyl]anilino]-[1,2,4]triazolo[1,5-a]pyridin-8-yl]-3,6-dihydro-2H-pyridin-1-yl]butan-1-one]
  IC50: 8.3 nM
